Each structure is given as a SMILES string.

One assay has as its system NSCLC. Description: overall survival of osimertinib-treated NSCLC patients (AACR Project GENIE cohort), predicted sensitive vs. less sensitive. The following applies: 334 osimertinib-treated patients. In kind it is in vivo, human. The source says:
FIG. 8 depicts a Kaplan-Meier plot showing corresponding overall survival (OS) measurements of patients predicted, according to methods of the present disclosure, to be sensitive vs. insensitive to ismertinib. NSCLC patients predicted to be sensitive experienced a 35-month increased median OS than the predicted less sensitive group (log-rank test p-value<10-5; HR=1.57 (1.43-1.78, 95% CI)).
A clinicogenomics cohort from AACR Project GENIE, which included 334 patients treated with osimertinib, was used to validate the predictive ability of the methods disclosed herein. Data obtained in real-world settings were used to assign drug sensitivity predictions to individual patients in a RWD cohort of NSCLC patients treated with osimertinib. FIG. 8, a Kaplan-Meier plot, depicts overall survival (OS) measurements corresponding to patients predicted to be sensitive vs. insensitive. NSCLC patients predicted to be sensitive experienced a 35-month increased median OS than the NSCLC patients predicted to be less sensitive (log-rank test p-value<10-5; HR=1.57 (1.43-1.78, 95% CI)).

In the next assay the test system is NSCLC tumor PDX models. Description: tumor response (mRECIST) of treatment-naïve NSCLC patient-derived xenograft (PDX) models in mice. In kind it is in vivo. The settings on record: 25 mg/kg/day for 3 weeks, NOD/SCID or BALB/c nude mice. The source says: FIG. 9 depicts a method for further validation of sensitivity predictions using patient-dervied xenograft (PDX) models (HuBase™, CrownBio®). Treatment naïve PDX tumors were subcutaneously implanted into female non-obese diabetic/severe combined immunodeficient (NOD/SCID) or BALB/c nude mice in triplicate for a total of 96 mice (n=48 treated; 48 vehicle-treated controls). Mice were assigned labels. After implanted tumors reached a size of 200 mm^3, mice were randomized into treatment and control groups. Treated mice were dosed with 25 mg/kg/day of osimertinib for 3 weeks. Changes in tumor volume were calculated. For each PDX model, tumor growth for treatment groups and control groups was assessed.
To validate the predictions of tumor sensitivity/insensitivity, as described above, data were acquired using treatment-naïve NSCLC tumor (patient-derived xenograft) PDX models available via HuBase™ (CrownBio®, an online database offering complete genomic annotation of the PDX models).
The current FDA label for osimertinib (FIG. 7) was used to assign PDX tumors to “FDA ON” or “FDA OFF” label groups based on the presence or absence of DNA alterations indicated for this drug (i.e., L858R mutation, T790M mutation, or exon 19 deletion). PDX tumors were also assigned label groups based on sensitivity predictions, as described above. Tumors labeled “Zephyr ON” included those that were predicted to be osimertinib-sensitive and samples labeled “Zephyr OFF” include those predicted to be osimertinib-insensitive. PDX models were then divided into four cohorts: FDA ON/ZEPHYR ON; FDA OFF/ZEPHYR ON; FDA ON/ZEPHYR OFF; and FDA OFF/ZEPHYR OFF.
Treatment naïve PDX tumors were subcutaneously implanted into female NOD/SCID or BALB/c nude mice in triplicate for a total of 96 mice (n=48 treated; 48 vehicle-treated controls). After implanted tumors reached a size of 200 mm^3, mice were randomized into treatment and control groups. Treated mice were dosed with 25 mg/kg/day of osimertinib for 3 weeks. Changes in tumor volume were calculated as previously described, e.g., in Gao et al., Nat. Med. 21, 1318-1325 (2015). For each PDX model, tumor growth for treatment groups and control groups (vehicle only) was assessed.
This final cohort represents an expansion of the patient population that can be successfully treated with osimertinib that is not captured by the existing FDA label.
In general terms: Xenograft models place foreign cells or tissue in a host animal.

For a further assay, the system named is cancer cell lines. The experiment in a line: area under the drug response curve (AUC) of cancer cell lines exposed to osimertinib. In kind it is cell-based. The following applies: AUC of 1 = growth equal to growth without osimertinib. An excerpt:
FIG. 4D depicts a boxplot of area under the drug response curve values for cell lines partitioned into a first group (sensitive) and the second group (non-sensitive) of cancer cell lines, by a machine learning model disclosed herein.
FIG. 4D depicts a graph of a box and whisker plot of area under the drug response curve (AUC) values for the first group (sensitive) and the second group (non-sensitive) of cancer cell lines. […] Furthermore, instead of generating the machine learning model wherein the model learns a point estimate for each of the parameters of the partitioning matrix (e.g., two or more genes), the machine learning model may be generated in a Bayesian context, wherein the machine learning model learns the posterior parameter distribution for the parameters of the partitioning matrix, the posterior parameter distribution may be approximately gaussian. For example, when the parameters of the partitioning matrix include 7 distinct genes, the machine learning model may learn the posterior parameter distribution for 8 different parameters (e.g., 7 genes plus an intercept term). In some embodiments, the posterior parameter distribution may have a confidence region of about 90%. The graphical representation of the confidence region of the posterior parameter distribution may depict ellipse enclosing a high-density region.

`C=CC(=O)Nc1cc(Nc2nccc(-c3cn(C)c4ccccc34)n2)c(OC)cc1N(C)CCN(C)C` [osimertinib]: in the assay on NSCLC (real-world data, log-rank test p-value<10-5), the “increase in median overall survival (OS), predicted sensitive vs. predicted less sensitive” value is recorded as 35 month. Besides, the “hazard ratio (HR) for overall survival” value in the assay on NSCLC (95% CI in brackets) is recorded as 1.57 (1.43-1.78, 95% CI). Besides, the “tumor response by mRECIST” value in the assay with NSCLC tumor PDX models (FDA OFF/ZEPHYR OFF cohort) is “disease progression”; in the assay on NSCLC tumor PDX models (FDA OFF/ZEPHYR ON cohort (no on-label EGFR alteration, predicted sensitive)), “partial to complete response”; in the assay with NSCLC tumor PDX models (FDA ON/ZEPHYR OFF cohort) it was “a mix of complete responses and disease progression”; in the assay on NSCLC tumor PDX models (FDA ON/ZEPHYR ON cohort), “complete response”. In addition, the “average AUC (area under the drug response curve)” value in the assay with cancer cell lines (first group (predicted sensitive) of cancer cell lines) is recorded as “about 0.9”; in the assay on cancer cell lines (second group (predicted non-sensitive) of cancer cell lines), “about 0.95”.

These data come from patent publication US20260142006A1, “APPARATUS AND METHODS FOR DETERMINING SENSITIVITY TO OSIMERTINIB” (Zephyr AI, Inc., priority 2022, published 2026).
